Like-named read-outs stand apart in the source and are kept apart here.
Tests used:
[1] = Clinical study of single oral doses of 5-azacytidine (oral formulation of Example 3): PK, bioavailability, safety; format: in vivo, human; details: for bioavailability: oral, SC reference dose = 135 mg, AUC = 777 ng · h/mL, read-out: F, percent bioavailability compared with historical SC azacitidine data
Procedure: The study was a multicenter, open-label, single treatment study. Patients were treated with escalating doses, in 20 mg increments, up to 200 mg. The study assessed the safety and tolerability of escalating doses, provided pilot information on the oral bioavailability of the study drug, and provided information on the single dose pharmacokinetics of the study drug after oral administration.
Multicenter, open-label, single-treatment, escalating-dose PK study. […] Single subject cohorts were used for each dose escalation. Subsequent subjects were to be treated at escalating doses, up to 200 mg, in 20 mg increments. Dose escalation was to continue until 1 of the following conditions was reached: • a.
If no safety concerns were identified and no Grade 3 or 4 AEs occurred in these subjects, dose escalation was to continue. […] Serial blood samples for plasma PK analyses were drawn before, and at the following time points after, dosing: 0.5, 1, 1.5, 2, 2.5, 3, 3.5, 4, 4.5, 5, 5.5, 6, 6.5, 7, 8 hours, and 12 hours (if possible). […] PK parameters calculated from plasma concentrations included (but were not limited to) Cmax, Tmax, t1/2, and AUC(0−∞).

[2] = test system: total hemoglobin, fetal hemoglobin and F cells; details: sickle cell patients, cited from earlier work
[3] = Excipient compatibility studies; format: physicochemical
leukemic mice = details: cited from earlier work
total hemoglobin = details: β^0-thalassemic patient, cited from earlier work
[4] = test system: human intestinal tissue (jejunum, ileum, colon); assay: Permeability in viable human intestinal strips (USSING chambers), mucosal to serosal; format: in vitro ADME
From the text: This model allows evaluation of the absorption potential of drugs and differences in drug absorption across the human jejunum, ileum, and colon and is based on Ungell et al. “Membrane Transport of Drugs in Different Regions of the Intestinal Tract of the Rat”, J. Pharm. Sci. 87:360-366, (1998) and Nejdfors et al. “Mucosal in vitro Permeability in the Intestinal Tract of the Pig, the Rat, and Man: Species and Region Related Differences”, Scand. J. Gastroenterol. 35:501-507, (2000). Permeation experiments were performed for 5-azacytidine in the jejunal, ileal, and colonic tissues originating from the same human donor. Post-mortem human whole intestine was obtained from the International Institute for the Advancement of Medicine (IIAM). Tissues were used within 24 hours of the organ's removal. Tissues were maintained in cold transport media before being stripped. The segments were cut along the mesenteric border, the underlying musculature was stripped off, and the epithelium was rinsed with ice cold normal saline. The stripped tissues were mounted within the vertical USSING chambers (Harvard Apparatus, Holliston, Mass.). In these studies, 5-azacytidine permeability was measured in both absolute rate and relative to atenolol (internal control). In all cases the net apparent permeability was assessed in the mucosal to serosal direction only.

[5] = 1 subject, 60 mg single oral dose
[6] = 1 subject, 80 mg single oral dose
[7] = all 4 subjects, 60 or 80 mg single oral dose
[8] = human, plasma, po, 60 mg, Subject 101, 60 mg single oral dose (Example 3 tablets)
[9] = human, plasma, po, 60 mg, Subject 101, 60 mg single oral dose (Example 3 tablets), read-out: Plasma concentration
[10] = human, plasma, po, 80 mg, Mean (n = 3), 80 mg single oral dose (Example 3 tablets)
[11] = human, plasma, po, 80 mg, Mean of 80 mg dose group (n=3), single oral dose (Example 3 tablets), read-out: Mean plasma concentration
[12] = human, plasma, po, 80 mg, Subject 102, 80 mg single oral dose (Example 3 tablets)
[13] = human, plasma, po, 80 mg, Subject 102, 80 mg single oral dose (Example 3 tablets), read-out: Plasma concentration
[14] = human, plasma, po, 80 mg, Subject 201, 80 mg single oral dose (Example 3 tablets)
[15] = human, plasma, po, 80 mg, Subject 201, 80 mg single oral dose (Example 3 tablets), read-out: Plasma concentration
[16] = human, plasma, po, 80 mg, Subject 202, 80 mg single oral dose (Example 3 tablets)
[17] = human, plasma, po, 80 mg, Subject 202, 80 mg single oral dose (Example 3 tablets), read-out: Plasma concentration
[18] = PO administration with THU versus without, bioassay

Nc1ncn([C@@H]2O[C@H](CO)[C@@H](O)[C@H]2O)c(=O)n1 [5-azacytidine, 4-amino-1-β-D-ribofuranosyl-1,3,5-triazin-2(1H)-one]
Plasma samples with quantifiable 5-azacytidine [1, 5]: 2 samples | Tolerability [1, 5]: well tolerated | Consecutive plasma samples with detectable 5-azacytidine [1, 6]: 4 consecutive samples | Tolerability [1, 6]: well tolerated | Mean plasma concentration ([1]; Mean of 80 mg dose group (n=3), single oral dose (Example 3 tablets), 4.0 h): BLQ | Mean plasma concentration ([1]; Mean of 80 mg dose group (n=3), single oral dose (Example 3 tablets), 4.5 h): BLQ | Mean plasma concentration ([1]; Mean of 80 mg dose group (n=3), single oral dose (Example 3 tablets), 5.0 h): BLQ | Plasma concentration ([1]; Subject 101, 60 mg single oral dose (Example 3 tablets), 0.5 h): BLQ | Plasma concentration ([1]; Subject 101, 60 mg single oral dose (Example 3 tablets), 4.5 h): BLQ | Plasma concentration ([1]; Subject 101, 60 mg single oral dose (Example 3 tablets), 5.0 h): BLQ | Plasma concentration ([1]; Subject 102, 80 mg single oral dose (Example 3 tablets), 0.5 h): BLQ | Plasma concentration ([1]; Subject 102, 80 mg single oral dose (Example 3 tablets), 3.5 h): BLQ | Plasma concentration ([1]; Subject 102, 80 mg single oral dose (Example 3 tablets), 4.0 h): BLQ | Plasma concentration ([1]; Subject 102, 80 mg single oral dose (Example 3 tablets), 4.5 h): BLQ | Plasma concentration ([1]; Subject 102, 80 mg single oral dose (Example 3 tablets), 5.0 h): BLQ | Plasma concentration ([1]; Subject 201, 80 mg single oral dose (Example 3 tablets), 0.5 h): BLQ | Plasma concentration ([1]; Subject 201, 80 mg single oral dose (Example 3 tablets), 5.0 h): BLQ | Plasma concentration ([1]; Subject 202, 80 mg single oral dose (Example 3 tablets), 4.0 h): BLQ | Plasma concentration ([1]; Subject 202, 80 mg single oral dose (Example 3 tablets), 4.5 h): BLQ | Plasma concentration ([1]; Subject 202, 80 mg single oral dose (Example 3 tablets), 5.0 h): BLQ | Grade of AEs possibly related to study drug [1, 7]: Grade 2 | Study-drug-related SAEs [1, 7]: No study-drug-related SAEs | bioavailability ([1]; human, plasma, 60 mg, Subject 101, 60 mg single oral dose): 6.7% | bioavailability ([1]; human, plasma, 80 mg, Mean (n = 3), 80 mg single oral dose): 18% | bioavailability ([1]; human, plasma, 80 mg, Subject 102, 80 mg single oral dose): 6.3% | bioavailability ([1]; human, plasma, 80 mg, Subject 201, 80 mg single oral dose): 24% | bioavailability ([1]; human, plasma, 80 mg, Subject 202, 80 mg single oral dose): 22% | AUC(0-inf) [1, 8]: 22.6 ng·h/mL | Cmax [1, 8]: 15.8 ng/mL | Tmax [1, 8]: 3 h | concentration at 0 h [1, 9]: 0 ng/mL | concentration at 1 h [1, 9]: 3.72 ng/mL | concentration at 1.5 h [1, 9]: 4.56 ng/mL | concentration at 2 h [1, 9]: 3.75 ng/mL | concentration at 3 h [1, 9]: 15.8 ng/mL | concentration at 3.5 h ([1]; human, plasma, po, 60 mg, Subject 101, 60 mg single oral dose (Example 3 tablets), 3.5 h, read-out: Plasma concentration): 4.27 ng/mL | concentration at 4 h ([1]; human, plasma, po, 60 mg, Subject 101, 60 mg single oral dose (Example 3 tablets), 4.0 h): 1.55 ng/mL | AUC(0-inf) [1, 10]: 81.5 ng·h/mL | Cmax [1, 10]: 53.2 ng/mL | Tmax [1, 10]: 1.5 h | half-life [1, 10]: 0.361 h | concentration at 0 h [1, 11]: 0 ng/mL | concentration at 0.5 h ([1]; human, plasma, po, 80 mg, Mean of 80 mg dose group (n=3), single oral dose (Example 3 tablets), 0.5 h, read-out: Mean plasma concentration): 1.49 ng/mL | concentration at 1 h [1, 11]: 46.6 ng/mL | concentration at 1.5 h [1, 11]: 53.2 ng/mL | concentration at 2 h [1, 11]: 36.9 ng/mL | concentration at 2.5 h [1, 11]: 17.5 ng/mL | concentration at 3 h [1, 11]: 6.3 ng/mL | concentration at 3.5 h ([1]; human, plasma, po, 80 mg, Mean of 80 mg dose group (n=3), single oral dose (Example 3 tablets), 3.5 h, read-out: Mean plasma concentration): 2.57 ng/mL | AUC(0-inf) [1, 12]: 28.6 ng·h/mL | Cmax [1, 12]: 34.3 ng/mL | Tmax [1, 12]: 1.5 h | half-life [1, 12]: 0.336 h | concentration at 0 h [1, 13]: 0 ng/mL | concentration at 1 h [1, 13]: 9.25 ng/mL | concentration at 1.5 h [1, 13]: 34.3 ng/mL | concentration at 2 h [1, 13]: 11 ng/mL | concentration at 2.5 h [1, 13]: 3.61 ng/mL | concentration at 3 h [1, 13]: 1.4 ng/mL | AUC(0-inf) [1, 14]: 111 ng·h/mL | Cmax [1, 14]: 75.1 ng/mL | Tmax [1, 14]: 2 h | half-life [1, 14]: 0.416 h | concentration at 0 h [1, 15]: 0 ng/mL | concentration at 1 h [1, 15]: 31.5 ng/mL | concentration at 1.5 h [1, 15]: 58.5 ng/mL | concentration at 2 h [1, 15]: 75.1 ng/mL | concentration at 2.5 h [1, 15]: 36.4 ng/mL | concentration at 3 h [1, 15]: 14.1 ng/mL | concentration at 3.5 h ([1]; human, plasma, po, 80 mg, Subject 201, 80 mg single oral dose (Example 3 tablets), 3.5 h, read-out: Plasma concentration): 6.1 ng/mL | concentration at 4 h ([1]; human, plasma, po, 80 mg, Subject 201, 80 mg single oral dose (Example 3 tablets), 4.0 h): 2.43 ng/mL | concentration at 4.5 h ([1]; human, plasma, po, 80 mg, Subject 201, 80 mg single oral dose (Example 3 tablets), 4.5 h): 1.19 ng/mL | AUC(0-inf) [1, 16]: 103 ng·h/mL | Cmax [1, 16]: 99.1 ng/mL | Tmax [1, 16]: 1 h | half-life [1, 16]: 0.366 h | concentration at 0 h [1, 17]: 0 ng/mL | concentration at 0.5 h ([1]; human, plasma, po, 80 mg, Subject 202, 80 mg single oral dose (Example 3 tablets), 0.5 h, read-out: Plasma concentration): 4.46 ng/mL | concentration at 1 h [1, 17]: 99.1 ng/mL | concentration at 1.5 h [1, 17]: 66.7 ng/mL | concentration at 2 h [1, 17]: 24.5 ng/mL | concentration at 2.5 h [1, 17]: 12.5 ng/mL | concentration at 3 h [1, 17]: 3.41 ng/mL | concentration at 3.5 h ([1]; human, plasma, po, 80 mg, Subject 202, 80 mg single oral dose (Example 3 tablets), 3.5 h, read-out: Plasma concentration): 1.61 ng/mL | Tmax ([1]; human, plasma, po, 80 mg, individual subjects who received an 80 mg oral dose (three values), post-dose): 1.5 h | Cmax increase versus the 60 mg dose ([1]; mean 80 mg oral dose): 3.5 fold | Time at which concentrations were below the level of quantitation ([1]; mean 80 mg oral dose): 4.0 h | Apparent oral bioavailability ([1]; oral formulation of Example 3): acceptable for therapeutic treatment | Clinical response, SC without THU versus PO with THU ([2]; 2 mg/kg/d SC without THU versus 0.2 mg/kg/d PO with 200 mg/d THU): comparable clinical response | Clinical response (total hemoglobin, fetal hemoglobin and F cell levels) ([2]; 5-azacytidine co-administered with THU): good clinical response | F reticulocyte production ([2]; oral 5-azacytidine 2 mg/kg/d alone): did not result in increased F reticulocyte production | Excipient compatibility ([3]; each excipient of the Example 3 formulation (Table 2)): compatible with each excipient | Excipient compatibility ([3]; each excipient of the Example 4 formulation (Table 3)): compatible with each excipient | Excipient compatibility ([3]; each excipient of the Example 6 formulation (Table 7)): compatible with each excipient | Excipient compatibility ([3]; each excipient of the Example 7 formulation (Table 8)): compatible with each excipient | Excipient compatibility ([3]; each excipient of the Example 8 formulation (Table 9)): compatible with each excipient | Excipient compatibility ([3]; each excipient of the Example 9 formulation (Table 10)): compatible with each excipient | Effect of THU on clearance or degradation of 5-azacytidine (leukemic mice; IP administration with THU, bioassay): little effect | Cmax (leukemic mice; [18]): significantly increased | t1/2 (leukemic mice; [18]): significantly increased | Efficacy with co-administration of THU (leukemic mice; PO with THU, all doses except the highest chronic dose which was toxic): increased efficacy | Effect of THU on pharmacodynamic effects of 5-azacytidine (leukemic mice; acute and chronic IP dosing with THU, except at the highest chronic dose which was toxic): did not influence | Hemoglobin levels (total hemoglobin; 2 mg/d tid PO with co-administration of THU): did not result in increased hemoglobin levels | Hemoglobin levels (total hemoglobin; 2 mg/kg/d IV): measurable increase | Absolute mucosal to serosal permeability by intestinal region ([4]; colon relative to jejunum and ileum, multiple donors (FIG. 1)): greatest in the colon | Effect of enzymatic inhibitors on absolute permeability ([4]; with ketoconazole and THU, increase maximal in jejunum and ileum, relatively small in colon): increased the absolute permeability in all GI tract regions

Reference: US20080057086A1, “COLON-TARGETED ORAL FORMULATIONS OF CYTIDINE ANALOGS” (PHARMION CORPORATION, priority 2006, published 2008)
